Patent US5270334A, “4-methoxy-5-methyl-pyran-3-ol natural products and derivatives thereof” (E. R. Squibb & Sons, Inc., priority 1992, dated 1993)
Like-named read-outs stand apart in the source and are kept apart here.

Key:
[1] = system: Candida tropicalis; assay: agar diffusion assay with yeasts (zone of inhibition); format: cell-based
Procedure: (§1) In addition to M.I.C. determinations, the following methodology was used to determine the activity of the compounds of this invention against yeasts. Fresh F-4 broth cultures of the test organisms were made from frozen vials. The broth cultures were incubated at 30° C. for 18 to 24 hours at which time the average cell count was assumed to be 5×10^7 CFU per ml. They were then used to inoculate flasks containing 300 ml of F-4 agar that had been melted and cooled to 48° C. in a temperature-controlled water bath. The inoculum consisted of 1.7 ml to give an inoculum level of about 2.8×10^5 CFU per ml. 25 ml of the inoculated agar was then poured into 150×15mm sterile Petri dishes and allowed to harden.
(§2) The medium was sterilized at 121° C. for 15 minutes at 15 psi.
(§3) F-4 agar has the same composition as the broth but with the addition of 15 g agar per liter.
(§4) Cellulose discs, 6.35 mm diameter, from Schleicher & Schuell, Inc., Keene, N.H., were charged with 10 μl of a solution composed of 1 mg/ml of lanomycin or scopularin in methanol. The discs were then placed on the surface of the inoculated agar plates of the test yeast strains, and the plates incubated at 30° C. for 18 to 24 hours. At that time, the diameter of the zones of inhibition was measured.

[2] = system: Candida albicans; assay: as above; format: cell-based
Procedure: as §1, §2, §3, §4

[3] = system: Candida glabrata; assay: as above; format: cell-based; details: Nakaseomyces glabratus, SC9342; Candida glabrata SC 9342; disc with 10 μl of 1 mg/ml; read-out: Zone diameter
Procedure: as §1, §2, §3, §4

[4] = system: Cryptococcus neoformis; assay: as above; format: cell-based
Procedure: as §1, §2, §3, §4

[5] = system: Candida quillermondi; assay: as above; format: cell-based
Procedure: as §1, §2, §3, §4

[6] = system: Saccaromyces cerevisiae; assay: as above; format: cell-based; details: read-out: Zone diameter
Procedure: as §1, §2, §3, §4

[7] = system: Candida krusei; assay: as above; format: cell-based; details: Pichia kudriavzevii, SC2969; Candida krusei SC 2969; disc with 10 μl of 1 mg/ml; read-out: Zone diameter
Procedure: as §1, §2, §3, §4

[8] = system: Candida parakrusei; assay: as above; format: cell-based
Procedure: as §1, §2, §3, §4

[9] = system: Gram negative bacteria; assay: antibacterial activity of lanomycin; format: cell-based; details: in words, Table 4
Procedure: (§5) *Minimal inhibitory concentrations were determined by agar dilution assay

[10] = system: Gram positive bacteria; assay: antibacterial activity of lanomycin; format: cell-based; details: in words, Table 4
Procedure: as §5

[11] = system: yeasts and fungi; assay: activity against a variety of yeasts and fungi (general statement); format: cell-based; details: in words
[12] = system: cytochrome P450 enzymes, such as lanosterol demethylase; assay: inhibition of cytochrome P450 enzymes (general statement); format: biochemical; details: in words
[13] = system: Candida stellatoidea; assay: MIC of scopularin, agar dilution assay (K-10 agar); format: cell-based; details: Candida albicans, SC2211, 18 h; Candida stellatoidea SC 2211
Procedure: (§6) The following methodology was used to determine the miniumum inhibitory concentration (hereinafter referred to as MIC) of scopularin.
(§7) The aerobic test organisms were grown in approximately 15-20ml of Antibiotic Assay Broth (Difco) by inoculating (in tubes) the broth with a loopful of the organism from a BHI (Difco) agar slant. The inoculated tubes were incubated at 37° C. for 18 to 24 hours. These cultures are assumed to contain 10^7 colony forming units (CFU) per ml and the cultures were diluted 1:100 to give a final inoculum level of 10^5 CFU; dilutions were made with Yeast Beef Broth (Difco).
(§8) Scopularin was dissolved in an appropriate diluent at a concentration of 1,000 μg/ml. Two-fold dilutions were made in Yeast Beef Broth (Difco), resulting in a range from 1000 µg/ml to 0.5 μg/ml. 1.5 ml of each dilution was placed into individual petri dishes to which 13.5ml of K-10 agar was added. The composition of K-10 agar is:
(§9) The final drug concentration in the agar ranged from 100 μg/ml to 0.05 μg/ml. Organism growth control plates containing agar only were prepared and inoculated before and after the test plates. The organisms were applied to the agar surface of each plate with a Denly Multipoint Inoculator (which delivers approximately 0.001 ml of each organism) resulting in a final inoculum of 10^4 CFU on the agar surface.
(§10) The plates were incubated at 37° C. for 18 hours and the MICs determined. The MIC is the lowest concentration of compound inhibiting growth of the organism.

[14] = system: Trichophyton mentagrophytes; assay: MIC of scopularin, agar dilution assay (K-10 agar); format: cell-based; details: SC2637, 18 h; Trichophyton mentagrophytes SC 2637
Procedure: as §6, §7, §8, §9, §10

[15] = system: Candida tropicalis; assay: MIC of scopularin, agar dilution assay (K-10 agar); format: cell-based
Procedure: as §6, §7, §8, §9, §10

[16] = system: Microsporum canis; assay: MIC of scopularin, agar dilution assay (K-10 agar); format: cell-based; details: SC9237, 18 h; Microsporum canis SC 9237
Procedure: as §6, §7, §8, §9, §10

[17] = system: Epidermophyton floccosum; assay: MIC of scopularin, agar dilution assay (K-10 agar); format: cell-based; details: SC9185, 18 h; Epidermophyton floccosum SC 9185
Procedure: as §6, §7, §8, §9, §10

[18] = system: Candida guilliermondii; assay: MIC of scopularin, agar dilution assay (K-10 agar); format: cell-based; details: Meyerozyma guilliermondii
Procedure: as §6, §7, §8, §9, §10

[19] = system: Aspergillus fumigatus; assay: MIC of scopularin, agar dilution assay (K-10 agar); format: cell-based; details: SC2100, 18 h; Aspergillus fumigatus SC 2100
Procedure: as §6, §7, §8, §9, §10

[20] = system: Candida krusei; assay: MIC of scopularin, agar dilution assay (K-10 agar); format: cell-based; details: Pichia kudriavzevii
Procedure: as §6, §7, §8, §9, §10

[21] = system: Candida parakrusei; assay: MIC of scopularin, agar dilution assay (K-10 agar); format: cell-based
Procedure: as §6, §7, §8, §9, §10

[22] = SC2210, Candida quillermondi SC 2210, disc with 10 μl of 1 mg/ml, read-out: Zone diameter
[23] = Saccaromyces cerevisiae SGY 379, disc with 10 μl of 1 mg/ml
[24] = Candida, SC2966, read-out: Zone diameter

## C/C=C/C=C/C=C(\C)[C@H]1OC[C@@H](C)[C@@H](OC)[C@@H]1OC(=O)CN (relative stereo) [Lanomycin]
[1]; Candida tropicalis, SC2963, read-out: Zone diameter
  zone of inhibition at 1000 µg/mL: 28 mm
[1]; Candida tropicalis, SC8159, read-out: Zone diameter
  zone of inhibition at 1000 µg/mL: 29 mm
[2]; SC4314, Candida albicans SC 4314, disc with 10 μl of 1 mg/ml, read-out: Zone diameter
  zone of inhibition at 1000 µg/mL: 32 mm
[3]
  zone of inhibition at 1000 µg/mL: 33 mm
[4]; Cryptococcus, SC5817, read-out: Zone diameter
  zone of inhibition at 1000 µg/mL: 21 mm
[5]; Candida, SC2996, read-out: Zone diameter
  zone of inhibition at 1000 µg/mL: 29 mm
[5]; [22]
  zone of inhibition at 1000 µg/mL: 30 mm
[6]; Saccaromyces cerevisiae SGY 195, disc with 10 μl of 1 mg/ml
  zone of inhibition at 1000 µg/mL: 25 mm
[6]; [23]
  zone of inhibition at 1000 µg/mL: 30 mm
[7]
  zone of inhibition at 1000 µg/mL: 12 mm
[8]; Candida, SC2621, read-out: Zone diameter
  zone of inhibition at 1000 µg/mL: 27 mm
[8]; [24]
  zone of inhibition at 1000 µg/mL: 12 mm
[9]
  activity against Gram negative bacteria: not active
[10]
  activity against Gram positive bacteria: not active
[11]
  activity against a variety of yeasts and fungi: has activity
[12]
  inhibition of cytochrome P450 enzymes, such as lanosterol demethylase: inhibit

## CCC/C=C/C=C/C=C(\C)[C@H]1OC[C@@H](C)[C@@H](OC)[C@@H]1OC(=O)CN (relative stereo) [Scopularin, (2α, 3β, 4α, 5α)-Tetrahydro-4-methoxy-5-methyl-2-(1-methyl-1,3,5-nonatrienyl)-2H-pyran-3-ol, aminoacetate ester]
[1]; SC2963, Candida tropicalis SC 2963, disc with 10 μl of 1 mg/ml, read-out: Zone diameter
  zone of inhibition at 1000 µg/mL: 32 mm
[1]; SC8159, Candida tropicalis SC 8159, disc with 10 μl of 1 mg/ml, read-out: Zone diameter
  zone of inhibition at 1000 µg/mL: 30 mm
[2]; Candida albicans, SC4314, read-out: Zone diameter
  zone of inhibition at 1000 µg/mL: 37 mm
[3]
  zone of inhibition at 1000 µg/mL: 36 mm
[4]; SC5817, Cryptococcus neoformis SC 5817, disc with 10 μl of 1 mg/ml, read-out: Zone diameter
  zone of inhibition at 1000 µg/mL: 25 mm
[5]; [22]
  zone of inhibition at 1000 µg/mL: 31 mm
[5]; SC2996, Candida quillermondi SC 2996, disc with 10 μl of 1 mg/ml, read-out: Zone diameter
  zone of inhibition at 1000 µg/mL: 32 mm
[6]; [23]
  zone of inhibition at 1000 µg/mL: 30 mm
[6]
  zone of inhibition at 1000 µg/mL: 23 mm
[7]
  zone of inhibition at 1000 µg/mL: 20 mm
[8]; [24]
  zone of inhibition at 1000 µg/mL: 20 mm
[8]; SC2621, Candida parakrusei SC 2621, disc with 10 μl of 1 mg/ml, read-out: Zone diameter
  zone of inhibition at 1000 µg/mL: 31 mm
[13]
  MIC: 25 µg/mL
[14]
  MIC: 0.2 µg/mL
[15]; SC10, 18 h, Candida tropicalis SC 10,597
  MIC: 25 µg/mL
[15]; SC2963, 18 h, Candida tropicalis SC 2963 (AmphoB^R)
  MIC: 6.3 µg/mL
[15]; SC8159, 18 h, Candida tropicalis SC 8159
  MIC: 25 µg/mL
[15]; SC9861, 18 h, Candida tropicalis SC 9861 (AmphoB^R)
  MIC: 25 µg/mL
[16]
  MIC: 0.4 µg/mL
[17]
  MIC: 0.2 µg/mL
[18]; SC2210, 18 h, Candida guilliermondii SC 2210
  MIC: 12.5 µg/mL
[18]; SC2996, 18 h, Candida guilliermondii SC 2996
  MIC: 0.4 µg/mL
[19]
  MIC: 50 µg/mL
[20]; SC2967, 18 h
  MIC: 0.4 µg/mL
[20]; SC2968, 18 h, Candida krusei SC 2968, read-out: MIC
  MIC: 1.6 µg/mL
[20]; SC2969, 18 h, Candida krusei SC 2969, read-out: MIC
  MIC: 1.6 µg/mL
[21]; SC2621, 18 h, Candida parakrusei SC 2621
  MIC: 0.8 µg/mL
[21]; SC2966, 18 h, Candida parakrusei SC 2966
  MIC: 1.6 µg/mL
[11]
  activity against a variety of yeasts and fungi: has activity
[12]
  inhibition of cytochrome P450 enzymes, such as lanosterol demethylase: inhibit
